Experimental data published in patent US7118895B2, “Process for producing aglycon by using diglycosidase and flavor-improved food containing the aglycon and converting agent to be used in the process” (Amano Enzyme Inc., priority 2000, dated 2006).

Test system: Crude diglycosidase
Test: Examination of substrate concentration in the conversion into isoflavone aglycons by diglycosidase using soybean materials;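 note: percent of the isoflavone family total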
Type: biochemical, Penicillium multicolor IAM7153
Conditions: concentrated soybean protein
Experimental: Into 20 mM acetate buffer of pH 4.0 was suspended 0.1 g, 0.25 g, 0.5 g, 1.0 g, or 1.5 g of each of various soybean materials (roasted soy flour (manufactured by Fuji Shokuryo K.K.), soymilk (manufactured by Gitoh Shokuhin K.K.), defatted soybean (manufactured by Fuji Seiyu K.K.), concentrated soybean protein (manufactured by Fuji Seiyu K.K.)). The pH of the suspension was measured and the liquid volume was adjusted to 4.5 mL while the pH was adjusted to 4.0 with 1N hydrochloric acid. An enzyme solution wherein diglycosidase activity of crude diglycosidase was adjusted to 1.88 AU/mL was added thereto in an amount of 0.5 mL, whereby the final liquid volume was 5.0 mL. Namely, the ratio of the soybean material in the reaction mixture was 2%, 5%, 10%, 20%, or 30% (w/v). The whole was reacted at 55° C. under shaking. To 5 mL of the reaction mixture was added 7 mL of ethanol after 0, 1, 3, and 6 hours of the reaction. After ultrasonication, the mixture was thoroughly mixed. It was subjected to centrifugal separation at 2,000 rpm and room temperature for 5 minutes. Then, […] of the supernatant was placed in a 1.5 mL microtube and was subjected to centrifugal separation at 15,000 rpm and 4° C. for 10 minutes. The supernatant was filtered through a filter and each sample was suitably diluted by a factor of 1 to 6 depending on the substrate concentration. Fifty μL of the diluted solution was analyzed by HLPC (Tables 27 to 38).

Measured: Decomposition efficiency: ratio of each glycoside/aglycon within its isoflavone family

O=C(O)CC(=O)OC[C@H]1O[C@@H](Oc2ccc3c(=O)c(-c4ccc(O)cc4)coc3c2)[C@H](O)[C@@H](O)[C@@H]1O [malonydaidzin]
not detected: substrate concentration 2%, heat treatment of enzyme no, reaction time 0 h | substrate concentration 2%, heat treatment of enzyme no, reaction time 1 h | substrate concentration 2%, heat treatment of enzyme no, reaction time 3 h | substrate concentration 2%, heat treatment of enzyme no, reaction time 6 h | substrate concentration 2%, heat treatment of enzyme yes, reaction time 6 h | substrate concentration 5%, heat treatment of enzyme no, reaction time 0 h | substrate concentration 5%, heat treatment of enzyme no, reaction time 1 h | substrate concentration 5%, heat treatment of enzyme no, reaction time 3 h | substrate concentration 5%, heat treatment of enzyme no, reaction time 6 h | substrate concentration 5%, heat treatment of enzyme yes, reaction time 6 h | substrate concentration 10%, heat treatment of enzyme no, reaction time 0 h | substrate concentration 10%, heat treatment of enzyme no, reaction time 1 h | substrate concentration 10%, heat treatment of enzyme no, reaction time 3 h | substrate concentration 10%, heat treatment of enzyme no, reaction time 6 h | substrate concentration 10%, heat treatment of enzyme yes, reaction time 6 h | substrate concentration 20%, heat treatment of enzyme no, reaction time 0 h | substrate concentration 20%, heat treatment of enzyme no, reaction time 1 h | substrate concentration 20%, heat treatment of enzyme no, reaction time 3 h | substrate concentration 20%, heat treatment of enzyme no, reaction time 6 h | substrate concentration 20%, heat treatment of enzyme yes, reaction time 6 h | substrate concentration 30%, heat treatment of enzyme no, reaction time 0 h | substrate concentration 30%, heat treatment of enzyme no, reaction time 1 h | substrate concentration 30%, heat treatment of enzyme no, reaction time 3 h | substrate concentration 30%, heat treatment of enzyme no, reaction time 6 h | substrate concentration 30%, heat treatment of enzyme yes, reaction time 6 h
